The source of these data is patent publication US9434688B2, “Indole derivatives as selective androgen receptor modulators (SARMS)” (Janssen Pharmaceutica, NV, priority 2004, dated 2016).

The target of one assay is T1, androgen receptor (Rattus norvegicus, UniProt P15207).
T1 sequence (P15207 1-902): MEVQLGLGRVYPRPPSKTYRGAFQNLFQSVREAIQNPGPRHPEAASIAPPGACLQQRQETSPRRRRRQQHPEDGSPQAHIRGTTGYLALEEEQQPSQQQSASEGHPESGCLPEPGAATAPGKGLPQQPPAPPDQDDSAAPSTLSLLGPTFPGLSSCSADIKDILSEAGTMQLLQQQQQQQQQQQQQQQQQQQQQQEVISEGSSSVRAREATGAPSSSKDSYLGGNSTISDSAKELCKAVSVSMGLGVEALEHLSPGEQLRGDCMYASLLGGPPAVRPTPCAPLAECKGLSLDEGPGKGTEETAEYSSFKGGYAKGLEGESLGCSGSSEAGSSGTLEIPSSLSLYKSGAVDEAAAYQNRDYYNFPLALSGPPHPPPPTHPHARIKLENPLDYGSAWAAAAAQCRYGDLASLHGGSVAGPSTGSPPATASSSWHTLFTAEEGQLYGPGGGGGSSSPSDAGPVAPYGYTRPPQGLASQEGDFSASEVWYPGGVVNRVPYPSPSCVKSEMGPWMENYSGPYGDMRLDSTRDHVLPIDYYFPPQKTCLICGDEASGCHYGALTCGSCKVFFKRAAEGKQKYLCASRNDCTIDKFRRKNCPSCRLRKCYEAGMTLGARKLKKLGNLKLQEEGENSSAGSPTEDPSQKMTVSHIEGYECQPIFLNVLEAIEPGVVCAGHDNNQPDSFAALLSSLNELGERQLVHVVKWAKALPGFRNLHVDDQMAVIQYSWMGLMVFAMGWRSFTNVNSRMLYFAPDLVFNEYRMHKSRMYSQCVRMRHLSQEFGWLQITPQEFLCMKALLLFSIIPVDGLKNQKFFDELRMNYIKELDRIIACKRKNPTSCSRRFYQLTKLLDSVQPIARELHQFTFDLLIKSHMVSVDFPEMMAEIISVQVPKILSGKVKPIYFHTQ
Briefly: COS-7 Whole-Cell Androgen Receptor Binding Assay, Adenovirus Transduction. The method, then: COS-7 cells were plated in 96-well plates at 20,000 cells per well, in a solution of DMEM/F12 (GIBCO) containing 10% (v/v) charcoal-treated fetal bovine serum (Hyclone) and lacking phenol red. The cells were then incubated overnight at 37° C. in 5% (v/v) humidified CO2.
Test compound solutions were prepared by diluting the test compound in 100% (v/v) DMSO, if necessary.
Next, 1 mL of DMEM/F12 lacking phenol red was pipetted into each of the wells of a 2-mL 96-well assay block. […] The wells were carefully mixed by pipette.
In a 15 mL or 50 mL sterile centrifuge tube, a dilution in DMEM/F12 of the adenovirus AdEasy+rAR at a moi of 1:50 per well was prepared.
The medium was removed from the 96-well plates by inversion and the plates dried very briefly, inverted, on a sterile towel. As soon as possible after medium removal, 40 μL of the diluted test compound was added to each well, in duplicate. […] The plates were then incubated for 48 hours at 37° C. in 5% (v/v) humidified CO2.
The medium was removed from the above incubated plates by inversion and dried. Each well was then washed with 0.35 mL of 1×PBS. The PBS was then removed from the plates by inversion and the plates dried.
To each well was then added 50 μL of 0.5% (v/v) Triton X-100 (Sigma) in 1×PBS and the plates placed on a rotary shaker for 5 min. The contents of each well were then transferred to an OptiPlate-96 (Packard) scintillation plate. To each well was then added 0.2 mL of Microscint-20 (Packard) and the wells counted on a TopCount (Packard).
Percent inhibition was determined by testing dilutions of the test compound (usually duplicates of 10 μM) in the binding assay. Counts per well were measured and percents of inhibition determined. […] Counts per well were measured and IC50s determined by linear regression.

Assay [1] has as its system castrated male Sprague Dawley rats. Put plainly: Ventral Prostate and Seminal Vesicle Weight In Vivo Assay. The arrangement: species or system rat; key: active: non weight adjusted prostate weight was ≦40 mg or the % Inhibition prostate weight, body weight adjusted was ≧40% @ 2 mg/day dosage; inactive: they did not meet the specified criteria defined above. To be noted: immature castrated male rats, once daily for five days, with testosterone propionate 2 mg/kg subcutaneously. The method, then:
Immature (approximately 50 g) castrated male Sprague Dawley rats (Charles River) were treated once daily for five days with test compound (usually given orally at 40 mg/kg in a volume of 0.3 mL, in 30% cyclodextrin or 0.5% methylcellulose vehicle) and with testosterone propionate (given subcutaneously by injection at the nape of the neck at 2 mg/kg, in a volume of 0.1 mL in sesame oil). On the sixth day, the rats were euthanized by asphyxiation in carbon dioxide. Ventral prostates and seminal vesicles were removed and their wet weights determined.
A test compound was said to be “active” if the non weight adjusted prostate weight was ≦40 mg or the % Inhibition prostate weight, body weight adjusted was ≧40% @ 2 mg/day dosage.

Each structure is given as a SMILES string. Where “and” joins values, the source holds several entries; their conditions need not be identical. Identical values can stand only once.

`CCSCC(O)c1cc2cc([N+](=O)[O-])c(C(F)(F)F)cc2[nH]1` (racemic) [compound 158]: the % Inhibition (as a rule, the relative decrease from the control value, in per cent) on androgen receptor was 62% and 56%. Also, the “active / inactive: inhibition of testosterone-enhanced prostate weight” value in assay [1] is “inactive”.
